# Assay results from US20260209301A1, “Galanin-2 Receptor Agonists” (LIFEARC, priority 2022, published 2026).
# Like-named read-outs stand apart in the source and are kept apart here.
# Assays:
# cynomolgus GalR2 = experiment: Calcium assay at orthologue receptor; format: cell-based, Macaca fascicularis; conditions: Table 8; Calcium assays; mean +/− standard deviation
# Excerpt: (§1) These species were chosen as they represent potential downstream in vivo models to be used. Within native galanin amino acid residues 1-15 are conserved across species, we would therefore expect the Gal FC fusions comprising amino acids 2 to 13 to retain GalR2 activity in these species. Calcium imaging was used to define receptor activity.
# GALR2 [1] = target: T1, GALR2 (Homo sapiens, UniProt O43603); experiment: Calcium assay, CHO GalR2 cells (FLIPR); conditions: mean +/− standard deviation; for GalR2 Calcium, mean pEC50: Table 2, n ≥ 3; for GalR2 activity (calcium assay), warhead length: Table 6
# T1 sequence (O43603 1-387): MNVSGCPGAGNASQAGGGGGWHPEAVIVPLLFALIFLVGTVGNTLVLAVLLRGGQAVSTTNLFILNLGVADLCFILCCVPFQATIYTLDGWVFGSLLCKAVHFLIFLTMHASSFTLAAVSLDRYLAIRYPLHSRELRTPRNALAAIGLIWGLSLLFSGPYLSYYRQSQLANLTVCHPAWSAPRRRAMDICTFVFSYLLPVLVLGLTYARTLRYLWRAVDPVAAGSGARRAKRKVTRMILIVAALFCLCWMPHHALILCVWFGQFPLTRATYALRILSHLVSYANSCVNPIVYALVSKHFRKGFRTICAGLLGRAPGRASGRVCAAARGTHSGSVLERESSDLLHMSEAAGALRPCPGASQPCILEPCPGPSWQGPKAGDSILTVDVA
# Description: CHO GalR2 cells were plated at 10,000 cells per well in black clear bottom plates (corning, USA) and incubated overnight at 37° C. with 5% CO2. […] Ligands were prepared at a 5× concentration and added to cells using the FLIPR (Molecular Devices, USA). Baseline was typically 20 seconds before ligand addition. […] For analysis, fluorescence was normalised to pre-addition baseline and peak fluorescence used for all quantification.
# In brief, a panel of functional cell-based microtiter-plate assays were developed using recombinant GalR1 and GalR2 receptors stably expressed in CHO cells. […] Nominally this equated to 10 serial (~3fold) dilutions with highest concentrations of 10-1 μM as appropriate.
# In addition to generating both potency and efficacy estimates, the latter being expressed relative to native galanin, both G-protein and non-G-Protein signalling pathways were measured.
# mouse GalR2 = target: T2, mouse GalR2 (Mus musculus, UniProt O88854); experiment: Calcium assay at orthologue receptor; format: cell-based; conditions: Table 8; Calcium assays; mean +/− standard deviation
# T2 sequence (O88854 1-371): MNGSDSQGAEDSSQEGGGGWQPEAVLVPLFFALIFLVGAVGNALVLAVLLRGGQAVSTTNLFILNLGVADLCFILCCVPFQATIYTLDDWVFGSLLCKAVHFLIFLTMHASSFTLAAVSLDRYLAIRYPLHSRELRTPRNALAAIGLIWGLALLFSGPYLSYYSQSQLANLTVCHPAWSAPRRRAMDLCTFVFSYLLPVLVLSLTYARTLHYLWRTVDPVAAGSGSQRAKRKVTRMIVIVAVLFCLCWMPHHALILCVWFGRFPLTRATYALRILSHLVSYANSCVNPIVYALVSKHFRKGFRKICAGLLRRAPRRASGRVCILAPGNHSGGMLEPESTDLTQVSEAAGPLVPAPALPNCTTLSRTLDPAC
# Excerpt: as §1
# GALR2 [2] = target: T1, GALR2; experiment: β-arrestin recruitment, PathHunter CHO-K1 GALR2 cells; format: cell-based; conditions: Table 2; mean +/− standard deviation, n ≥ 3
# Description: Ligands were prepared at half log dilutions using cell plating reagent 2. 5 μl of each ligand was added to cells and plates incubated at 37° C. for 90 minutes. DiscoverX PathHunter detection kit (DiscoverX, USA) was added to cells as described my manufacturer's guidelines and plates incubated for 60 minutes at room temperature in the dark. Chemiluminescent signal was measured using the PHERAstar FS (BMG, Germany).
# [3] = system: mouse CCI model of neuropathic pain; format: in vivo; conditions: for minimal effective dose (at 4 hrs): von Frey, 4 hrs post-dose
# Excerpt: The Chronic Constriction Injury (CCI) model of neuropathic pain involves unilateral loose ligation of four ligatures around the left sciatic nerve at mid-thigh level spaced 1 mm apart (Chaplan S R, et al J Neurosci Methods. 1994 July; 53(1):55-63). This procedure results in the development of hyperalgesia, allodynia and spontaneous pain (ectopic discharges) which can be measured using mechanical and thermal behavioural assessments. […] The mouse CCI model of neuropathic pain differs from that of the rat by virtue of 3 ligatures around the sciatic nerve instead of 4.
# Static mechanical tactile allodynia: Static mechanical (tactile) allodynia was assessed by measurement of withdrawal threshold using calibrated (force; g) von-Frey monofilaments (Touch-Test Sensory Evaluator; Scientific Marketing Associates) applied to the plantar surface of the hindpaw. The animals were placed in individual Perspex boxes on a raised metal mesh for 30-40 min before the test. A series of graduated von Frey hairs (0.07, 0.16, 0.4, 0.6 and 1 g) was applied in sequence with a protocol of 1 sec on 1 sec off repeated 10 times. Each hair was applied perpendicularly to the centre of the ventral surface of the paw until it bent slightly. The force applied to the hind-paw of the animal to induce 5 responses out of 10 trials was recorded as paw withdrawal threshold (PWT).
# Baseline PWT was assessed on three consecutive days (Day-2, Day-1 and Day 0) and the mean of the last two readings used as the baseline withdrawal threshold.
# On Day 1, neuropathic pain was induced via ligation of the sciatic nerve using three loose ligatures of prolene sutures (Chronic Constriction Injury). Under Isoflurane anaesthesia mixed with oxygen (3:1, 1 L/min) the left hind leg was shaved mid-thigh level and an incision made through the skin using a scalpel. The biceps femoris muscle layer was dissected by making an initial incision using a pair of sharp scissors, which was then widened using a pair of blunt scissors. The common sciatic nerve was exposed using a pair of forceps and 3 loose ligatures of prolene (7-0, Ethicon) were tied around the sciatic nerve with 1 mm spacing between each. The nerve was then returned below the muscle layer and the wound closed using absorbable sutures (Vicryl).
# Von Frey assessment of mechanical allodynia was taken on days 19 and 22. Animals were then ranked and randomised (based on a Latin square design) to treatment groups according to the percentage change (compared to pre-surgery baseline) of the mean mechanical withdrawal threshold observed on days 19 and 22. Only those animals showing a PWT percentage change of >60% from pre-surgery baseline were included in the study.
# Dosing took place on day 23 with either vehicle, test compound (i.p.) or Pregabalin (15 mg/kg p.o.) at 10 ml/kg. Allodynia was then assessed at intervals thereafter e.g. 2, 4 and 24 hours post dose. von Frey measurement continued until activity disappeared up to day 27.
# For studies involving a repeat administration, dosing took place on day 23 with either vehicle, test compound (i.p.) or Pregabalin (15 mg/kg p.o.) at 10 mL/kg. Allodynia was then assessed at intervals thereafter e.g. 4, 24 and 48 hours post dose. Animals were re-dosed at 68, 116, 164, 212, 260, 308 hours, with von Frey measurements conducted 4 hrs after each administration. Allodynia was therefore measured at 72, 120, 168, 216, 264, and 312 hours post initial dose, equating to repeat dosing 2, 3, 4, 5, 6 and 7 times, respectively
# Evaluation of study & Statistical analysis: vF withdrawal threshold (g) was assessed by a series of graduated von Frey hairs (0.07, 0.16, 0.4, 0.6 and 1 g) applied in sequence to the ipsilateral hindpaw with a protocol of 1 sec on 1 sec off repeated 10 times. Each hair was applied perpendicularly to the centre of the ventral surface of the paw until it bent slightly. […]
# [4] = highest concentration tested 10 μM
Substance,Cynomolgus GalR2 activity (cynomolgus GalR2),"GalR2 Calcium, mean pEC50 (GALR2 [1])","GalR2 activity (calcium assay), warhead length (GALR2 [1]; [4])","GalR2 activity (calcium assay), linker variants (GALR2 [1]; Table 7, highest concentration tested 10 μM)",Mouse GalR2 activity (mouse GalR2),"GalR2 Beta Arrestin, mean pEC50 (GALR2 [2])","effect on withdrawal threshold, low dose ([3]; 0.03 mg/kg i.p., 4 hours)","effect on withdrawal threshold, low dose ([3]; 0.1 mg/kg, 24 hours)","effect-desensitisation on repeat administration ([3]; 0.3 and 1 mg/kg i.p., re-dosed days 3-13)",minimal effective dose (at 4 hrs) ([3]; mouse CCI) [mg/kg i.p.],"duration of statistically significant reversal of mechanical hyperalgesia ([3]; mouse CCI, highest and lowest doses tested)","Minimum Effective Dose [MED] ([3]; mouse CCI, multiple studies taken collectively) [mg/kg i.p.]","sustained reversal on repeat dosing, duration ([3]; mouse CCI, repeat dosing) [days]","minimal effective dose ([3]; mouse CCI, study with 1, 3, 10 and 30 mg/kg i.p.) [mg/kg i.p.]","sedation (observational during testing) ([3]; mouse, in vivo)","reversal of CCI-induced mechanical hyperalgesia ([3]; 3, 10 and 30 mg/kg i.p., 2 and 4 hrs)","effect on CCI-induced mechanical hyperalgesia at 24 hrs ([3]; 24 hrs, any of the doses tested (1-30 mg/kg i.p.))"
"Gal2-13FC: galanin 2-13, AEAAAKEAAAKA linker, human IgG1 FC; SEQ ID NO: 7",7.7 +/− 0.4,6.3 +/− 0.3,6.4 +/− 0.1,6.4 +/− 0.1,6.4 +/− 0.3,6.7 +/− 0.2,effective,statistically significant,no loss of effect,0.03,up to 96 hrs post-dose,≤ 0.03,≥ 13,≤ 1,not associated with overt sedation,,
"Gal2-30FC: galanin 2-30, AEAAAKEAAAKA linker, human IgG1 FC; SEQ ID NO: 28",8.4 +/− 0.1,6.6 +/− 0.3,6.8 +/− 0.1,,7.0 +/− 0.1,7.3 +/− 0.2,,,,3,,,,,,efficacious and reversed CCI-induced mechanical hyperalgesia,not at 24 hrs
